These are literature values, as cited in patent US10954430B2, “Low-toxicity, low-flammability, environmentally-safe, friction reducer fluid for hydraulic fracturing” (priority 2012, dated 2021).

The subject of data set [1] is Pimephales promelas (fathead minnow).
The test system of data set [2] is daphnia magna (water flea).
Another data set concerns most sensitive species. As to conditions: eco-toxicity.
Another data set relates to animal. As to conditions: in vivo.

≈ marks a conversion by molar mass, not a printed value. Read-outs that look alike come from different tables or passages of the source. Where only a bound is given, the exact number is not on record here.

For the molecule `CC1COC(=O)O1` (stereo not drawn) [Propylene carbonate, propylene carbonate], the “LD50 for oral toxicity” value in the data set with rat (oral) was > 5000 mg/kg.
`OCCCO` [propanediol]: the LD50 entry with rat (oral) is given as “over 15,000 mg/kg”. Besides, the aquatic toxicity profile in data set [1] (Pimephales promelas (fathead minnow)) is > 9,270 mg/L; in data set [2] (daphnia magna (water flea)), > 7.417 mg/L.
On to `CC(O)COc1ccccc1` (stereo not drawn) [Dowanol PPH, propylene glycol phenyl ether], for which, in the data set with rat (in vivo), the LD50 was > 2,000 mg/kg. Further, the results for the LC50 in data set [1] (Pimephales promelas) and in data set [2] (Daphnia magna) were 280 µg/mL (≈ 1840 µM) and 370 µg/mL (≈ 2430 µM), respectively. In addition, in the data set with most sensitive species, the “LC50 for most sensitive species” value is > 100 µg/mL. In the data set with animal, the animal toxicity result is “does not have significant animal toxicity”.
